Patent publication US7625696B2, “Screening method” (Takeda Pharmaceutical Company Limited, priority 2003, dated 2009)

Key:
nuclear receptor PAR = settings: J. Biol. Chem. 271 (37), 22441-22446, 1996; cited from earlier work
human GPR30 = molecular target: T1, human GPR30 (Homo sapiens, UniProt Q99527, P21A/Q20H); experiment: Intracellular calcium ion level-increasing activity using FLIPR, human GPR30 cells; format: cell-based; settings: human GPR30-expressed CHO cells, Fluo 3-AM, up to 100 μM (FIGS. 1-3, 7)
T1 construct: expressed in transfected cells; host or cells: CHO/dhfr- cells (ATCC), clone #19
T1 sequence (Q99527 whole entry Q20H/P21A): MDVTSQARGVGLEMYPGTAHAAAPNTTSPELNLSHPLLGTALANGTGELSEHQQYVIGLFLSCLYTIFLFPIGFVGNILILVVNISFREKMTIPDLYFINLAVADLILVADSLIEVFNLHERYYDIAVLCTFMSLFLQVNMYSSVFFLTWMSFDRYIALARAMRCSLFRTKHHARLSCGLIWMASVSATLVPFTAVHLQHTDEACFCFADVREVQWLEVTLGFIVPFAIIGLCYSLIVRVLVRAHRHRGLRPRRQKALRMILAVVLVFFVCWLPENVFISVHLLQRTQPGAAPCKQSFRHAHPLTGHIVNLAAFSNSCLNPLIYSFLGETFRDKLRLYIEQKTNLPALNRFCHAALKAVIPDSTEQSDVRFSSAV
Source text: The cDNA (SEQ ID NO: 5) for human GPR30 was cloned by known PCR techniques to incorporate the cDNA into pAKKO1.11H expression vector (Biochemica et Biophysica Acta, 1219 (1994) 251-259). The structure of plasmid was verified by restriction enzyme digestion and sequencing analysis and a correctly constructed plasmid was used as CHO cell expression plasmid pAK-hGPR30.
This plasmid pAK-hGPR30 was transfected to CHO/dhfr− cells (American Type Culture Collection) by electroporation. First, plasmid pAK-hGPR30 was digested with restriction enzyme Ahd I. A cuvette for electroporation received 5×10^6 CHO/dhfr− cells suspended in 500 μl of PBS and 5 μg of plasmid DNA dissolved in 10 μl of TE buffer. The mixture was settled on ice for 5 minutes and subjected to electroporation under conditions of […] and 960 μF. After settling on ice for 5 minutes, the total volume of CHO/dhfr− cells were plated in a T75 flask and incubated in nucleic acid-containing MEMalpha medium (Invitrogen, Inc.) supplemented with 10% fetal bovine serum (BIO WHITTAKER, Inc.) at 37° C. in 5% carbon dioxide for one day. The cells were dispersed by trypsin treatment, recovered from the flask and plated in a 96-well plate by 200 counts or 500 counts per well. Incubation was initiated in nucleic acid-free MEMalpha medium (Invitrogen, Inc.) supplemented with 10% dialyzed fetal bovine serum (JRH BIOSCIENCES, Inc.) and 50 μg/ml gentamicin at 37° C. in 5% carbon dioxide. The plasmid-transfected transformants of CHO cells grew in the medium but the non-transfected cells gradually died. On Days 8 to 10 after the incubation, one colony that kept growing in one well of the 96-well plate were isolated and approximately 48 colonies of the transformants of CHO cells were selected. From each cell selected, RNA was recovered using a commercially available kit for RNA isolation. Subsequently, transformant CHO cell #19 clone highly expressing human GPR30 was selected by known TaqMan RT-PCR (hereinafter briefly referred to as human GPR30 cell). […]

various cancer cells = settings: J. Biol. Chem. 271 (37), 22441-22446, 1996; cited from earlier work
rat GPR30 = molecular target: T2, rat GPR30 (Rattus norvegicus, UniProt O08878, S320N); experiment: Intracellular calcium ion level-increasing activity using FLIPR, rat GPR30 cells; format: cell-based; settings: rat GPR30-expressed CHO cells, Fluo 3-AM, up to 100 μM (FIGS. 4-6, 8)
T2 construct: expressed in transfected cells; host or cells: CHO/dhfr- cells (ATCC), clone #6
T2 sequence (O08878 1-375 S320N): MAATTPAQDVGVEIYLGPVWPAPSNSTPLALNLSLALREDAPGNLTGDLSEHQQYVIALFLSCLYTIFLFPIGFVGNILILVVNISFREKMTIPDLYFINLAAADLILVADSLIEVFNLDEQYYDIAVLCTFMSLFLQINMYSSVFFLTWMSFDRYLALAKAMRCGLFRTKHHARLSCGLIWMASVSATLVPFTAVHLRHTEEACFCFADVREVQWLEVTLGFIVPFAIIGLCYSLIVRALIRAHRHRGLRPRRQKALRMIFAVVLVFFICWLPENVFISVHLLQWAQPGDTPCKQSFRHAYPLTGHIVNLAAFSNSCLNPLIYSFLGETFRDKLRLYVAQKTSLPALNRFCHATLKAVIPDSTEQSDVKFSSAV
Source text: The cDNA (SEQ ID NO: 6) for rat GPR30 was cloned by known PCR techniques to incorporate the cDNA into pAKKO1.11H expression vector (Biochemica et Biophysica Acta, 1219 (1994) 251-259). The structure of plasmid was verified by restriction enzyme digestion and sequencing analysis and a correctly constructed plasmid was used as CHO cell expression plasmid pAK-rGPR30.
In accordance with the procedures described in REFERENCE EXAMPLE 1, this plasmid pAK-rGPR30 was transfected to CHO/dhfr− cells (American Type Culture Collection) by electroporation and transformant CHO cell #6 clone highly expressing rat GPR30 was selected was selected (hereinafter briefly referred to as rat GPR30 cell).
(§1) The human GPR30 and rat GPR30 cells obtained in REFERENCE EXAMPLES above were suspended in medium (10% dFBS-DMEM) in 15×10^4 cells/ml, respectively. A 200 μl aliquot of the suspension was plated in each well of a 96-well plate (Black plate clear bottom, Coster, Inc.) for FLIPR, using an 8 channel pipette (3.0×10^4 cells/200 μl/well), and cultured at 37° C. overnight in a 5% CO2 incubator, which was provided for use (hereinafter referred to as the cell plate). Then, 20 ml of H/HBSS (9.8 g of Nissui HANKS 2 (Nissui Seiyaku Co., Ltd.), 0.35 g of sodium hydrogencarbonate, 4.77 g of HEPES; after adjusting the pH to 7.4 with 6 M sodium hydroxide solution, sterilization through a filter followed), 200 μl of 250 mM Probenecid and 200 μl of fetal bovine serum (FBS) were mixed. […]
(§2) All trans-retinol, all trans-retinal or 4-HPR (4-hydroxyphenylretinamide) was added to and diluted with 150 μl of H/HBSS containing 2.5 mM Probenecid and 0.1% CHAPS or H/HBSS containing 2.5 mM Probenecid, 0.1% CHAPS and 0.2% BSA; the dilution was transferred to a 96-well plate (V-Bottom Plate, Coster, Inc.) for FLIPR (hereinafter, the sample plate). […] Changes in fluorescence intensity were measured with passage of time to determine the intracellular calcium ion level-increasing activities.

GPR30 = experiment: Intracellular calcium increase in GPR30-expressed CHO cells (summary statement); format: cell-based; settings: stimulation with the compound
Protocol: as §1, §2

| Structure (SMILES) | agonist for nuclear receptor (nuclear receptor PAR) | increase in the intracellular calcium ion concentration (change in fluorescence intensity) (human GPR30) | apoptosis of various cancer cells (various cancer cells) | increase in the intracellular calcium ion concentration (change in fluorescence intensity) (rat GPR30) | intracellular calcium in the GPR30-expressed CHO cells (GPR30) |
| --- | --- | --- | --- | --- | --- |
| CC1=C(/C=C/C(C)=C/C=C/C(C)=C/C(=O)Nc2ccc(O)cc2)C(C)(C)CCC1 [4-HPR, 4-hydroxyphenylretinamide] | is an agonist for nuclear receptor PAR | induced an increase in the intracellular calcium ion concentration in a manner dependent on the concentration | induces apoptosis of various cancer cells | induced an increase in the intracellular calcium ion concentration in a manner dependent on the concentration | specifically increased |
| CC1=C(/C=C/C(C)=C/C=C/C(C)=C/C=O)C(C)(C)CCC1 [all trans-retinal] |  | induced an increase in the intracellular calcium ion concentration in a manner dependent on the concentration |  | induced an increase in the intracellular calcium ion concentration in a manner dependent on the concentration |  |
| CC1=C(/C=C/C(C)=C/C=C/C(C)=C/CO)C(C)(C)CCC1 [all trans-retinol] |  | induced an increase in the intracellular calcium ion concentration in a manner dependent on the concentration |  | induced an increase in the intracellular calcium ion concentration in a manner dependent on the concentration | specifically increased |
